In patent publication US20260373132A1, “PERK INHIBITORHC-5404 IN COMBINATION WITH ANTI-PD-1 ANTIBODY AND/OR AN ANTIANGIOGENETIC AGENT FOR USE IN THE TREATMENT OF CANCER” (HIBERCELL, INC., priority 2022, published 2026):

Legend:
Assay type in all cases: in vivo, mouse
HMGB1 in 786-O xenograft = assay: HMGB1 IHC in 786-O xenografts; conditions: 30 mg/kg, compared to vehicle (FIG. 4D)
Protocol: 786-O tumor cells were maintained in vitro with MEM medium supplemented with 10% heat inactivated fetal bovine serum and 0.01 mM NEAA, at 37 °C in an atmosphere of 5% CO2. Each mouse was inoculated subcutaneously at the right front region with 786-O tumor cells (5×106) in 0.1 ml of PBS (1:1 matrigel) for tumor development. The randomization for efficacy study began when the mean tumor size reached approximately 200-300 mm^3, preferably to initiate with 250 mm^3. […]
Paraffin sections of tumor samples were stained on slides for HMGB1 using the Abcam antibody (cat #ab18256) and chromogenic DAB staining on Bond Rx (Leica Biosystems). The slides were digitized by Leica AT2 slide scanner with 40× objective. The scanned images were analyzed using custom-written macro in ImageJ/FIJI (NIH) to measure nuclear and non-nuclear signal (FIGS. 4C and 4D).

[1] = test system: tumor vasculature and pericyte cells of 786-O xenografts progressed on axitinib; assay: IHC of tumor vasculature and pericytes in 786-O xenografts that progressed on axitinib; conditions: 7 days after rerandomization (FIG. 92)
Protocol: Formalin-fixed paraffin-embedded samples were sectioned at 5 μm thickness and mounted on Superfrost Plus microscope slides (Fisher Scientific). All immunohistochemical (IHC) staining was performed on Bond Rx auto-stainer (Leica Biosystems) using the conventional TSA-amplified detection system. Primary antibodies used were as follows: α-CD31 (Abcam #ab182981), α-smooth muscle actin (SMA; Abcam #ab124964), α-Meca32 (Novus Biologicals #NB100-77668). TSA-conjugated Alexa488 and Alexa647 fluorophores from Invitrogen (#B40953 and #B40958) were used at 1:500 dilution. Slides were counterstained with DAPI and cover slipped using Mowiol antifade mounting media (Sigma #D2522).
Slides were imaged with Aperio Versa 200 (Leica Biosystems) whole-slide scanner using 10×/0.32NA objective, and the data were analyzed using custom-written macros in ImageJ/FIJI (NIH). Briefly, 150 μm of outer edges of the tumor sections were eliminated from the analysis. Gaussian-blurred DAPI channel was used to measure the area of the tissue. Scans of […] were processed with median filter to remove noise, then positive areas were measured with appropriate threshold levels. % positive area for each marker was calculated. CD31-SMA double positive areas were measured via image calculation of the binary images. One-way ANOVA and pair-wise comparisons were performed on the data using Prism GraphPad.
(§1) After 14 days of treatments, 77 mice bearing the largest tumors were rerandomized into four PD arms (n=8), four efficacy arms (n=10), and 5 tumors sampled on day of rerandomization as a baseline. The remaining animals were removed from study.

[2] = test system: 786-O xenografts progressed on axitinib; assay: growth of 786-O xenografts that progressed on axitinib; conditions: single agent 30 mg/kg PO BID, 28 days after progression on axitinib (FIG. 40)
Description: as §1
Despite initial responses to VEGFR-TKI therapy, tumor regrowth necessitates subsequent rounds of alternate therapies to improve patient outcomes.

pPERK in Caki-1 tumors = assay: pPERK in Caki-1 tumor xenografts
Protocol: (§2) Samples were put in 500 μL of Novex lysis buffer consisting of 2× Novex Tris-Glycine SDS sample buffer (ThermoFisher LC2676), 1× Phosphatase Inhibitor Cocktail III (Sigma P0044), 1× PhosphataseArrest I (Gbioscience 113P-D), 1×2-mercaptoethanol (Gibco 21985023), 1× Benzonase (EMD Millipore Corp 70746-3), and 1× Protease inhibitor cocktail tablet (Roche/Sigma 11836170001). Samples were homogenized with the Polytron and heated for 10 min at 95 °C. They were then centrifuged at max speed for 10 min and the supernatant was transferred. Protein concentrations of samples were measured using the Pierce 660 nm Protein assay kit (Thermo Scientific 22660) according to the manufacturer's instructions.
(§3) Western Blot analysis was performed on the SimpleWestern high-throughput protein analysis platform (ProteinSimple 004-650) according to manufacturer's protocol using a 12-230 kDA Separation Module (ProteinSimple SM-W004) and Total Protein Detection Module (ProteinSimple DM-TP01). Antibodies used were: (Add info for other antibodies used) pPERK (Lilly; 1:50) and PERK (Cell Signaling Technology 5683; 1:200). All protein analytes were normalized to total protein loaded on capillary. […]

[3] = test system: MFE280 endometrial cancer model; assay: MFE280 endometrial xenograft tumor growth; conditions: single agent: HC-5404 30 mg/kg PO BID or lenvatinib 10 mg/kg QD (FIG. 77)
Protocol: (§4) Xenograft RCC models were generated as follows: Female NOD.SCID mice (6-8 weeks of age) were injected with A498 RCC cells (5×10^6 cells/mouse), female Balb/c Nude mice (6-8 weeks old) were implanted with 786-O RCC cells (5×10^6 cells/mouse) or Caki-1 RCC cells (6×10^6 cells/mouse), female Athymic Nude-Foxn1nu mice (7-8 weeks of age) were implanted with MFE280 endometrial cells (10×10^6 cells/mouse). Cells were implanted into the flank of animals.
(§5) Once tumor tumors reached volume of typically 150-250 mm^3, animals were randomized by tumor volume into the treatment groups of 8 or 10 animals per group. In the single animal trial with RCC PDX models, only one animal per group was enrolled.
Body weight and tumor volume were measured twice weekly. Tumor volume was calculated using the formula [tumor volume (mm^3)=π/6×length×width^2] and plotted as means+SEM. The percentage of tumor growth inhibition was calculated at the end of the study using the formula: 100−[1−(ΔT/ΔC)], if ΔT>0, ΔT, mean tumor volume of the drug-treated group on the observation day of the study—mean tumor volume of the drug-treated group on initial day of dosing; ΔC, mean tumor volume of the control group on the observation day of the study—mean tumor volume of the control group on initial day of dosing. Regression was calculated using the formula=100×ΔT/Tinitial, if ΔT<0. […]

Caki-1 RCC xenograft = Caki-1 RCC xenograft tumor growth
Protocol: as §4, §5
Body weight and tumor volume were measured twice weekly. Tumor volume was calculated using the formula [tumor volume (mm^3)=π/6×length×width^2] and plotted as means+SEM. The percentage of tumor growth inhibition was calculated at the end of the study using the formula: […], if ΔT>0, ΔT, mean tumor volume of the drug-treated group on the observation day of the study—mean tumor volume of the drug-treated group on initial day of dosing; ΔC, mean tumor volume of the control group on the observation day of the study—mean tumor volume of the control group on initial day of dosing. Regression was calculated using the formula=100×ΔT/Tinitial, if ΔT<0. Animals with >50% regressions were partial responders. Animals with tumor volume of 0 (no measurable tumor) were considered as complete responders, and animals with <50% tumor regression and 30% growth over the baseline were considered as stable disease. Animals with tumors>30% increase over the baseline were considered progressive disease. The % change in body weight was calculated by the formula (body weight on observation day−body weight on initial day)/body weight on initial day×100%.

pPERK in A498 tumors = assay: pPERK in A498 tumor xenografts
Protocol: as §2, §3

[4] = 30 mg/kg PO BID, seven days (FIG. 30)

## Cc1cc(NC(=O)[C@H](O)c2cc(F)cc(F)c2)ccc1-c1cnc(N)c(C(=O)NC(C)C)c1 [HC-5404, (R)-2-amino-5-(4-(2-(3,5-difluorophenyl)-2-hydroxyacetamido)-2-methylphenyl)-N-isopropylnicotinamide]
HMGB1 in 786-O xenograft
  HMGB1 cytoplasmic expression: induced
[1]
  proportion of smooth muscle actin (SMA): decreased
[2]
  tumor growth inhibition relative to vehicle: 47%
pPERK in Caki-1 tumors; [4]
  pPERK expression in Caki-1: strongly inhibited pPERK expression
pPERK in Caki-1 tumors; DC-101 study, 4 days of treatment, low signal-to-noise (FIG. 37)
  pPERK levels in Caki-1: not affected
[3]
  TGI %: ~ 37%
Caki-1 RCC xenograft; 10 and 30 mg/kg PO BID tested, 28 days (FIG. 36)
  effect on growth of Caki-1 model: minimal effect
Caki-1 RCC xenograft; HC-5404 or sunitinib monotherapy, compared with A498 (FIG. 32)
  sensitivity of Caki-1 to monotherapy: far less sensitive
pPERK in A498 tumors; [4]
  pPERK expression in A498: strongly inhibited pPERK expression
pPERK in A498 tumors; DC-101 study, 4 days of treatment (FIG. 37)
  pPERK levels in A498: inhibited the pPERK signal
